System: 313798-341-R-J2-PDC spheroids, viability
Assay: Anticancer human tumor 313798-341-R-J2-PDC patient-derived cervical squamous cell carcinoma cell line growth inhibition [PI3K]
Details: spheroids with HUVEC and MSC; for IC50: curve of first compound; for viability, T/C: stronger effect = lower value; active means viability on the fitted dose curve at most 10% of control; inactive means the rest
Outline: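 Combination activity was assessed by viability in multicellular tumor spheroids carrying HUVEC and MSC components. Agents were tested with PI3K inhibitors from a Cmax-based top dose (or 10 microM) downward in half-log increments.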

[1] = second compound 0.00316 µM, first compound 0.0316 µM
[2] = second compound 0.00316 µM, first compound 0.1 µM
[3] = second compound 0.00316 µM, first compound 0.316 µM
[4] = second compound 0.00316 µM, first compound 1 µM
[5] = second compound 0.00316 µM, first compound 3.16 µM
[6] = second compound 0.00316 µM, first compound 10 µM
[7] = second compound 0.01 µM, first compound 0.0316 µM
[8] = second compound 0.01 µM, first compound 0.1 µM
[9] = second compound 0.01 µM, first compound 0.316 µM
[10] = second compound 0.01 µM, first compound 1 µM
[11] = second compound 0.01 µM, first compound 3.16 µM
[12] = second compound 0.01 µM, first compound 10 µM
[13] = second compound 0.0316 µM, first compound 0.0316 µM
[14] = second compound 0.0316 µM, first compound 0.1 µM
[15] = second compound 0.0316 µM, first compound 0.316 µM
[16] = second compound 0.0316 µM, first compound 1 µM
[17] = second compound 0.0316 µM, first compound 3.16 µM
[18] = second compound 0.0316 µM, first compound 10 µM
[19] = second compound 0.1 µM, first compound 0.0316 µM
[20] = second compound 0.1 µM, first compound 0.1 µM
[21] = second compound 0.1 µM, first compound 0.316 µM
[22] = second compound 0.1 µM, first compound 1 µM
[23] = second compound 0.1 µM, first compound 3.16 µM
[24] = second compound 0.1 µM, first compound 10 µM
[25] = second compound 0.316 µM, first compound 0.0316 µM
[26] = second compound 0.316 µM, first compound 0.1 µM
[27] = second compound 0.316 µM, first compound 0.316 µM
[28] = second compound 0.316 µM, first compound 1 µM
[29] = second compound 0.316 µM, first compound 3.16 µM
[30] = second compound 0.316 µM, first compound 10 µM
[31] = second compound 1 µM, first compound 0.0316 µM
[32] = second compound 1 µM, first compound 0.1 µM
[33] = second compound 1 µM, first compound 0.316 µM
[34] = second compound 1 µM, first compound 1 µM
[35] = second compound 1 µM, first compound 3.16 µM
[36] = second compound 1 µM, first compound 10 µM
[37] = second compound 0.00316 µM, first compound 0.00316 µM
[38] = second compound 0.00316 µM, first compound 0.01 µM
[39] = second compound 0.01 µM, first compound 0.00316 µM
[40] = second compound 0.01 µM, first compound 0.01 µM
[41] = second compound 0.0316 µM, first compound 0.00316 µM
[42] = second compound 0.0316 µM, first compound 0.01 µM
[43] = second compound 0.1 µM, first compound 0.00316 µM
[44] = second compound 0.1 µM, first compound 0.01 µM
[45] = second compound 0.316 µM, first compound 0.00316 µM
[46] = second compound 0.316 µM, first compound 0.01 µM
[47] = second compound 1 µM, first compound 0.00316 µM
[48] = second compound 1 µM, first compound 0.01 µM
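Further: spheroids exposed to compounds for seven days.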
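Wherever viability, T/C is given: 100% = DMSO vehicle control viability.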

CC(C)NCC(C(=O)N1CCN(c2ncnc3c2C(C)CC3O)CC1)c1ccc(Cl)cc1 (stereo not drawn) + CC(Nc1ccc2c(c1)OCCn1cc(N3C(=O)OCC3C(F)F)nc1-2)C(N)=O
2.25 µM: IC50 (second compound 0.00316 µM)
0.0749 µM: IC50 (second compound 1 µM)
inactive: viability, T/C [1] 107% | viability, T/C [2] 94.9% | viability, T/C [3] 81% | viability, T/C [4] 68.6% | viability, T/C [5] 40.5% | viability, T/C [6] 25.9% | viability, T/C [7] 107% | viability, T/C [8] 103% | viability, T/C [9] 93.5% | viability, T/C [10] 61.1% | viability, T/C [11] 41.1% | viability, T/C [12] 30.2% | viability, T/C [13] 106% | viability, T/C [14] 92.5% | viability, T/C [15] 82.2% | viability, T/C [16] 69.5% | viability, T/C [17] 41.3% | viability, T/C [18] 25.6% | viability, T/C [19] 121% | viability, T/C [20] 99.6% | viability, T/C [21] 80.9% | viability, T/C [22] 62.5% | viability, T/C [23] 39.5% | viability, T/C [24] 27.2% | viability, T/C [25] 84.6% | viability, T/C [26] 84.2% | viability, T/C [27] 62.3% | viability, T/C [28] 46.7% | viability, T/C [29] 35.4% | viability, T/C [30] 26% | viability, T/C [31] 53% | viability, T/C [32] 50.2% | viability, T/C [33] 42.1% | viability, T/C [34] 38.2% | viability, T/C [35] 30.5% | viability, T/C [36] 25.5%
0.805 µM: IC50 (second compound 0.316 µM)
2.38 µM: IC50 (second compound 0.0316 µM)
1.91 µM: IC50 (second compound 0.1 µM)
1.85 µM: IC50 (second compound 0.01 µM)

CCN1CCN(Cc2ccc(Nc3ncc(F)c(-c4cc(F)c5nc(C)n(C(C)C)c5c4)n3)nc2)CC1 + CC(Nc1ccc2c(c1)OCCn1cc(N3C(=O)OCC3C(F)F)nc1-2)C(N)=O
inactive: viability, T/C [37] 102% | viability, T/C [38] 104% | viability, T/C [1] 99.3% | viability, T/C [2] 105% | viability, T/C [3] 123% | viability, T/C [4] 131% | viability, T/C [39] 94.9% | viability, T/C [40] 102% | viability, T/C [7] 96.8% | viability, T/C [8] 125% | viability, T/C [9] 138% | viability, T/C [10] 120% | viability, T/C [41] 103% | viability, T/C [42] 104% | viability, T/C [13] 117% | viability, T/C [14] 115% | viability, T/C [15] 133% | viability, T/C [16] 110% | viability, T/C [43] 115% | viability, T/C [44] 103% | viability, T/C [19] 90.2% | viability, T/C [20] 107% | viability, T/C [21] 101% | viability, T/C [22] 86.1% | viability, T/C [45] 86.1% | viability, T/C [46] 76.7% | viability, T/C [25] 71.4% | viability, T/C [26] 75.7% | viability, T/C [27] 77.7% | viability, T/C [28] 61.7% | viability, T/C [47] 57.3% | viability, T/C [48] 48.3% | viability, T/C [31] 52.3% | viability, T/C [32] 56.8% | viability, T/C [33] 52.7% | viability, T/C [34] 58%
> 1 µM: IC50 (second compound 0.00316 µM) | IC50 (second compound 0.01 µM) | IC50 (second compound 0.0316 µM) | IC50 (second compound 0.1 µM) | IC50 (second compound 0.316 µM) | IC50 (second compound 1 µM)

Cn1ncc(Cl)c1-c1cc(C(=O)NC(CN)Cc2cccc(F)c2)sc1Cl (stereo not drawn) + CC(Nc1ccc2c(c1)OCCn1cc(N3C(=O)OCC3C(F)F)nc1-2)C(N)=O
0.889 µM: IC50 (second compound 0.0316 µM)
0.97 µM: IC50 (second compound 0.00316 µM)
1.04 µM: IC50 (second compound 0.01 µM)
0.19 µM: IC50 (second compound 1 µM)
0.535 µM: IC50 (second compound 0.316 µM)
0.822 µM: IC50 (second compound 0.1 µM)
inactive: viability, T/C [1] 117% | viability, T/C [2] 91.3% | viability, T/C [3] 94.2% | viability, T/C [4] 48.3% | viability, T/C [5] 34.4% | viability, T/C [6] 38.6% | viability, T/C [7] 97.3% | viability, T/C [8] 102% | viability, T/C [9] 75.5% | viability, T/C [10] 52.4% | viability, T/C [11] 38.1% | viability, T/C [12] 35.6% | viability, T/C [13] 102% | viability, T/C [14] 107% | viability, T/C [15] 84.5% | viability, T/C [16] 46.8% | viability, T/C [17] 35.1% | viability, T/C [18] 34.9% | viability, T/C [19] 114% | viability, T/C [20] 95.7% | viability, T/C [21] 67.6% | viability, T/C [22] 47.4% | viability, T/C [23] 35.2% | viability, T/C [24] 36.8% | viability, T/C [25] 74.6% | viability, T/C [26] 69.6% | viability, T/C [27] 57.9% | viability, T/C [28] 41.4% | viability, T/C [29] 32.8% | viability, T/C [30] 35.7% | viability, T/C [31] 59.8% | viability, T/C [32] 56.1% | viability, T/C [33] 44.7% | viability, T/C [34] 37.2% | viability, T/C [35] 28.7% | viability, T/C [36] 32.2%

Cn1ncnc1[C@H]1c2n[nH]c(=O)c3cc(F)cc(c23)N[C@@H]1c1ccc(F)cc1 + CC(Nc1ccc2c(c1)OCCn1cc(N3C(=O)OCC3C(F)F)nc1-2)C(N)=O
inactive: viability, T/C (second compound 0.00316 µM, first compound 0.000316 µM) 104% | viability, T/C (second compound 0.00316 µM, first compound 0.001 µM) 96.2% | viability, T/C [37] 99.1% | viability, T/C [38] 98.1% | viability, T/C [1] 94.9% | viability, T/C [2] 84.7% | viability, T/C (second compound 0.01 µM, first compound 0.000316 µM) 95.7% | viability, T/C (second compound 0.01 µM, first compound 0.001 µM) 104% | viability, T/C [39] 88.5% | viability, T/C [40] 93.5% | viability, T/C [7] 92.8% | viability, T/C [8] 83.5% | viability, T/C (second compound 0.0316 µM, first compound 0.000316 µM) 107% | viability, T/C (second compound 0.0316 µM, first compound 0.001 µM) 102% | viability, T/C [41] 115% | viability, T/C [42] 106% | viability, T/C [13] 100% | viability, T/C [14] 100% | viability, T/C (second compound 0.1 µM, first compound 0.000316 µM) 102% | viability, T/C (second compound 0.1 µM, first compound 0.001 µM) 102% | viability, T/C [43] 91.7% | viability, T/C [44] 89% | viability, T/C [19] 96.9% | viability, T/C [20] 72.8% | viability, T/C (second compound 0.316 µM, first compound 0.000316 µM) 77.2% | viability, T/C (second compound 0.316 µM, first compound 0.001 µM) 78% | viability, T/C [45] 78.3% | viability, T/C [46] 73.6% | viability, T/C [25] 71.3% | viability, T/C [26] 58.1% | viability, T/C (second compound 1 µM, first compound 0.000316 µM) 57.5% | viability, T/C (second compound 1 µM, first compound 0.001 µM) 57% | viability, T/C [47] 58.3% | viability, T/C [48] 48.1% | viability, T/C [31] 52.1% | viability, T/C [32] 38.1%
0.0225 µM: IC50 (second compound 1 µM)
> 0.1 µM: IC50 (second compound 0.00316 µM) | IC50 (second compound 0.01 µM) | IC50 (second compound 0.0316 µM) | IC50 (second compound 0.1 µM) | IC50 (second compound 0.316 µM)

Reference: PubChem BioAssay AID1963982 (Molecular Pharmacology Branch, DTP, NCI, 2024)
